The source of these data is patent US8487108B2, “Piperidinyl carbamate intermediates for the synthesis of aspartic protease inhibitors” (Vitae Pharmaceuticals, Inc., priority 2005, dated 2013).

Each structure is given as a SMILES string. A value given as a limit tells only on which side of the number the result lay.

Broadly, the IC50 is the concentration at which inhibition is half-maximal.

The test addresses T1, trypsin-activated recombinant human renin (Homo sapiens, UniProt P00797).
T1 sequence (P00797 67-406): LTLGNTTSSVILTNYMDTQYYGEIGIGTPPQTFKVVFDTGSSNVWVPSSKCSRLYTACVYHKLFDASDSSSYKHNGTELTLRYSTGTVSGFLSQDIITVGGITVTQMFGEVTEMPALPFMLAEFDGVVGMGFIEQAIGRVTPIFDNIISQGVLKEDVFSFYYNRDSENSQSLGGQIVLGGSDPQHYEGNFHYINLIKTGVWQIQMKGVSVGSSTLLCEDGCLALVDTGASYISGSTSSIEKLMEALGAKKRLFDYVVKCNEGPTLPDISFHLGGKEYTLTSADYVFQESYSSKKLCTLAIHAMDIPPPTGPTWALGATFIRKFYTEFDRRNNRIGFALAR
Put plainly: Renin fluorescence assay (internally quenched peptide substrate). The class given is biochemical. Particulars: compounds I*. The procedure, abridged:
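Cleavage of an angiotensinogen-derived DABCYL-quenched peptide by trypsin-activated recombinant human renin (0.2-2 nM final) in 50 mM BES, 150 mM NaCl, 0.25 mg/mL BSA, pH 7.0; compounds 10 μM to 1 nM final. Fluorescence (ex 340/em 495 nm) followed 60-360 min at rt; linear-slope rates give percent inhibition versus uninhibited control.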
Regarding `COC(=O)NCCO[C@@H](c1cc(Cl)ccc1C)[C@@H]1CCCN(C(=O)NC[C@@H](N)C[C@H]2CCCCOC2)C1` [I*-109a, methyl 2-((R)-((R)-1-((S)-2-amino-3-((R)-oxepan-3-yl)propylcarbamoyl)piperidin-3-yl)(5-chloro-2-methylphenyl)methoxy)ethylcarbamate], the IC50 was less than 0.001 µM.
For the compound `CNC[C@H](CC1CCCCC1)NC(=O)N1CCC[C@@H]([C@@H](OCCNC(=O)OC)c2cc(Cl)ccc2F)C1` [I*-117a, methyl 2-((R)-(5-chloro-2-fluorophenyl)((R)-1-((S)-1-cyclohexyl-3-(methylamino)propan-2-ylcarbamoyl)piperidin-3-yl)methoxy)ethylcarbamate], the IC50 is less than 0.001 µM.
Turning to `CNC[C@H](CC1CCCCC1)NC(=O)N1CCC[C@@H]([C@@H](OCCNC(=O)OC)c2cc(F)cc(F)c2O)C1` [I*-114a, methyl 2-((R)—((R)-1-((S)-1-cyclohexyl-3-(methylamino)propan-2-ylcarbamoyl)piperidin-3-yl)(3,5-difluoro-2-hydroxyphenyl)methoxy)ethylcarbamate], the IC50 was less than 0.01 µM.
Turning to `COC(=O)NCCO[C@@H](c1cccc(Cl)c1)[C@@H]1CCCN(C(=O)N[C@@H]2CNCC[C@H]2CC2CCC2)C1` (relative stereo) [I*-44a, methyl 2-((R)-(3-chlorophenyl)((R)-1-((3S*,4R*)-4-(cyclobutylmethyl)piperidin-3-ylcarbamoyl)piperidin-3-yl)methoxy)ethylcarbamate], the IC50 is less than 0.01 µM.
For `CNC[C@H](CC12CC3CC(CC1C3)C2)NC(=O)N1CCC[C@@H]([C@@H](OCCNC(=O)OC)c2cccc(F)c2)C1` [I*-123a, methyl 2-((R)-((3R)-1-((S)-1-(3-noradamantyl)-3-(methylamino)propan-2-ylcarbamoyl)piperidin-3-yl)(3-fluorophenyl)methoxy)ethylcarbamate], the IC50 was less than 0.01 µM.
With `CNC[C@H](CC1CCCCC1)NC(=O)N1CCC[C@@H]([C@@H](OCCNC(=O)OC)c2ccc(F)c(F)c2)C1` [I*-65a, methyl 2-((R)-((R)-1-((S)-1-cyclohexyl-3-(methylamino)propan-2-ylcarbamoyl)piperidin-3-yl)(3,4-difluorophenyl)methoxy)ethylcarbamate], the IC50 was less than 0.01 µM.
As to `CNC[C@H](CC1CCOC1)NC(=O)N1CCC[C@@H]([C@@H](OCCNC(=O)OC)c2cccc(F)c2)C1` (stereo partly drawn) [I*-6a, methyl 2-((R)-(3-fluorophenyl)((3R)-1-((S)-1-(methylamino)-3-(tetrahydrofuran-3-yl)propan-2-ylcarbamoyl)piperidin-3-yl)methoxy)ethylcarbamate], the IC50 is more than 0.05 µM.
As for `CNC[C@H](C[C@H]1CCC(=O)N(C)C1)NC(=O)N1CCC[C@@H]([C@@H](OCCNC(=O)OC)c2cccc(F)c2)C1` [I*-76a, methyl 2-((R)-(3-fluorophenyl)((R)-1-((S)-1-((R)-1-methyl-6-oxopiperidin-3-yl)-3-(methylamino)propan-2-ylcarbamoyl)piperidin-3-yl)methoxy)ethylcarbamate], the figure is more than 0.05 µM.
In the case of `CNC[C@H](CC1CCCCC1)NC(=O)N1CCC[C@@H]([C@@H](OCCNC(=O)OC)c2cc(F)ccc2F)C1` [I*-63a, methyl 2-((R)-((R)-1-((S)-1-cyclohexyl-3-(methylamino)propan-2-ylcarbamoyl)piperidin-3-yl)(2,5-difluorophenyl)methoxy)ethylcarbamate], the concentration for half-maximal inhibition (IC50) is less than 0.001 µM.
For the compound `CNC[C@H](CCC1(OC)CCCC1)NC(=O)N1CCC[C@@H]([C@@H](OCCNC(=O)OC)c2cc(F)cc(F)c2)C1` [I*-134a, methyl 2-((R)-(3,5-difluorophenyl)((R)-1-((S)-4-(1-methoxycyclopentyl)-1-(methylamino)butan-2-ylcarbamoyl)piperidin-3-yl)methoxy)ethylcarbamate], the IC50 is more than 0.05 µM.
Consider `CNC[C@@H](NC(=O)N1CCC[C@@H]([C@@H](OCCNC(=O)OC)c2cccc(Cl)c2)C1)[C@@H](O)C1CCCCC1` [I*-100a, methyl 2-((R)-(3-chlorophenyl)((R)-1-((1S,2R)-1-cyclohexyl-1-hydroxy-3-(methylamino)propan-2-ylcarbamoyl)piperidin-3-yl)methoxy)ethylcarbamate], for which the IC50 was less than 0.001 µM.
For `CNC[C@H](C[C@H]1CCCCOC1)NC(=O)N1CCC[C@@H]([C@@H](OCCNC(=O)OC)c2cccc(Cl)c2)C1` [I*-106a, methyl 2-((R)-(3-chlorophenyl)((R)-1-((S)-1-(methylamino)-3-((R)-oxepan-3-yl)propan-2-ylcarbamoyl)piperidin-3-yl)methoxy)ethylcarbamate], the IC50 is less than 0.001 µM.
Consider `CCNC(=O)CO[C@@H](c1cccc(Cl)c1)[C@@H]1CCCN(C(=O)N[C@H](CNC)C[C@H]2CCCCOC2)C1` [I*-61a, (R)-3-((R)-(3-chlorophenyl)(2-(ethylamino)-2-oxoethoxy)methyl)-N-((2S)-1-(methylamino)-3-((R)-oxepan-3-yl)propan-2-yl)piperidine-1-carboxamide], for which the IC50 is less than 0.01 µM.
As to `COCC(C)(C)C[C@H](N)CNC(=O)N1CCC[C@@H]([C@@H](OCCNC(=O)OC)c2cccc(Cl)c2)C1` [I*-35a, methyl 2-((R)—((R)-1-((S)-2-amino-5-methoxy-4,4-dimethylpentylcarbamoyl)piperidin-3-yl)(3-chlorophenyl)methoxy)ethylcarbamate], the IC50 was less than 0.02 µM.
As for `CNC[C@H](CC1CCCCC1)NC(=O)N1CCC[C@@H]([C@@H](OCCNC(=O)OC)c2nccs2)C1` [I*-13a, methyl 2-((R)-((R)-1-((S)-1-cyclohexyl-3-(methylamino)propan-2-ylcarbamoyl)piperidin-3-yl)(thiazol-2-yl)methoxy)ethylcarbamate], the IC50 is less than 0.02 µM.
As to `CNC[C@H](CN1CCCCC1=O)NC(=O)N1CCC[C@@H]([C@@H](OCCNC(=O)OC)c2cccc(F)c2)C1` [I*-46a, methyl 2-((R)-(3-fluorophenyl)((R)-1-((R)-1-(methylamino)-3-(2-oxopiperidin-1-yl)propan-2-ylcarbamoyl)piperidin-3-yl)methoxy)ethylcarbamate], the IC50 is more than 0.05 µM.
`CNC[C@H](CC1CCCCCC1)NC(=O)N1CCC[C@@H]([C@@H](OCCNC(=O)OC)c2cccc(F)c2)C1` [I*-39a, methyl 2-((R)-((R)-1-((S)-1-cycloheptyl-3-(methylamino)propan-2-ylcarbamoyl)piperidin-3-yl)(3-fluorophenyl)methoxy)ethylcarbamate]: the IC50 is less than 0.001 µM.
As for `CNC[C@H](C[C@H]1CCC(C)(C)OC1)NC(=O)N1CCC[C@@H]([C@@H](OCCNC(=O)OC)c2ccccc2)C1` [I*-156a, methyl 2-((R)—((R)-1-((S)-1-((R)-6,6-dimethyl-tetrahydro-2H-pyran-3-yl)-3-(methylamino)propan-2-ylcarbamoyl)piperidin-3-yl)(phenyl)methoxy)ethylcarbamate], the IC50 was less than 0.02 µM.
Consider `CNC[C@H](CC1(C)CCCCC1)NC(=O)N1CCC[C@@H]([C@@H](OCCNC(=O)OC)c2cccc(F)c2)C1` [I*-43a, methyl 2-((R)-(3-fluorophenyl)((R)-1-((S)-1-(methylamino)-3-(1-methylcyclohexyl)propan-2-ylcarbamoyl)piperidin-3-yl)methoxy)ethylcarbamate], for which the half-maximal inhibitory concentration (IC50) is less than 0.01 µM.
On to `CNC[C@@H](CC1(C)CCCCC1)NC(=O)N1CCC[C@@H]([C@@H](OCCNC(=O)OC)c2cc(F)cc(F)c2)C1` [I*-94a, methyl 2-((R)-(3,5-difluorophenyl)((R)-1-((R)-1-(methylamino)-3-(1-methylcyclohexyl)propan-2-ylcarbamoyl)piperidin-3-yl)methoxy)ethylcarbamate], for which the IC50 was more than 0.05 µM.
In the case of `CNC[C@H](CC1CCCCC1)NC(=O)N1CCC[C@@H]([C@@H](OCCNC(=O)OC)c2cc(Cl)ccc2C)C1` [I*-85a, methyl 2-((R)-(5-chloro-2-methylphenyl)((R)-1-((S)-1-cyclohexyl-3-(methylamino)propan-2-ylcarbamoyl)piperidin-3-yl)methoxy)ethylcarbamate], the IC50 is less than 0.001 µM.
On to `CNC[C@H](CC1CCC(C)CC1)NC(=O)N1CCC[C@@H]([C@@H](OCCNC(=O)OC)c2cccc(Cl)c2)C1` (stereo partly drawn) [I*-86a, methyl 2-((R)-(3-chlorophenyl)((R)-1-((S)-1-(methylamino)-3-(4-methylcyclohexyl)propan-2-ylcarbamoyl)piperidin-3-yl)methoxy)ethylcarbamate], for which the IC50 is less than 0.001 µM.
To `COC(=O)NCCO[C@@H](c1cccc(Cl)c1)[C@@H]1CCCN(C(=O)NC[C@@H](N)C[C@H]2CCCCOC2)C1` [I*-68a, methyl 2-((R)-((R)-1-((S)-2-amino-3-((R)-oxepan-3-yl)propylcarbamoyl)piperidin-3-yl)(3-chlorophenyl)methoxy)ethylcarbamate] belongs less than 0.001 µM.
In the case of `CNC[C@@H](NC(=O)N1CCC[C@@H]([C@@H](OCCNC(=O)OC)c2cc(Cl)ccc2C)C1)[C@@H](O)C1CCCC1` [I*-107a, methyl 2-((R)-(5-chloro-2-methylphenyl)((R)-1-((1S,2R)-1-cyclopentyl-1-hydroxy-3-(methylamino)propan-2-ylcarbamoyl)piperidin-3-yl)methoxy)ethylcarbamate], the IC50 was less than 0.01 µM.
